In US12275684B2, “Methods for making and using endoxifen” (Atossa Therapeutics, Inc., priority 2017, dated 2025):
Where “and” joins values, the source holds several entries; their conditions need not be identical. Equal values may be shown once. Read-outs that look alike come from different tables or passages of the source.

Assays:
[1] = Accelerated stability study of (Z)-endoxifen free base solution in ethanol (E/Z by HPLC); format: physicochemical
Experimental: HPLC-UV analyses of the samples was carried out using a Luna phenyl-hexyl column (4.6 mm×150 mm×3 μm of particle size). The column temperature was 40° C. and sample compartment temperature was maintained at ambient temperature. Samples were prepared by dissolving solids and filtrates at 0.2 mg/ml of sample in methanol as sample buffer. Samples were then injected into the column in an injection volume of 20 μl. Likewise, mildly acidic (pH 4.3) ammonium formate buffer/methanol in the mobile phase with gradient elution was used. Mobile phase system consisting of: Mobile Phase A (MPA) buffer was 10 mM HCOONH4 with 0.03% HCOOH buffer in water, and Mobile Phase B (MBP) buffer was 10 mM HCOONH4 in methanol with a gradient program used.
The run time was 30 m, the flow rate was 1.0 mL/m, and the delay time was 5 m. Samples were detected by UV detection at 243 nm. Retention times were typically from 12.95 to 13.20 m for (E)-endoxifen and from 14.0 to 14.33 m for (Z)-endoxifen. Relative Retention Time (RRT) for (E)-endoxifen was […] and 1.0 for (Z)-endoxifen.
The stability of (Z)-endoxifen free base Sample 1 of Table 11 was studied when stored at various temperatures in solid form and in ethanol (EtOH) solution. The (E)-endoxifen and (Z)-endoxifen levels were measured on days 2, 7 and 10 following placement of 1 g aliquots of purified (Z)-endoxifen free base in 180 mL HDPE bottles under dry N2, which were then placed in double LDPE bags. The double bagged HDPE bottles containing each sample were individually packed in aluminum foil bags and thermally sealed until they were opened for testing the stability of the samples. The (E)- and (Z)-isomers of endoxifen were monitored by HPLC as disclosed above. The purity of (Z)-endoxifen in solid form remained at about 97% at 40° C., 60° C., and 80° C. up to 10 days.

[2] = cited from earlier work
[3] = 2.8 mg/mL in 70% EtOH, 25° C., 2 days
[4] = 2.8 mg/mL in 70% EtOH, 25° C., 7 days
[5] = 2.8 mg/mL in 70% EtOH, 25° C., 10 days
[6] = 2.8 mg/mL in 70% EtOH, 40° C., 2 days
[7] = 2.8 mg/mL in 70% EtOH, 40° C., 7 days
[8] = 2.8 mg/mL in 70% EtOH, 40° C., 10 days
[9] = 10 mg/mL in 99.5% EtOH, 25° C., 2 days
[10] = 10 mg/mL in 99.5% EtOH, 25° C., 7 days
[11] = 10 mg/mL in 99.5% EtOH, 25° C., 10 days
[12] = 10 mg/mL in 99.5% EtOH, 40° C., 2 days
[13] = 10 mg/mL in 99.5% EtOH, 40° C., 7 days
[14] = 10 mg/mL in 99.5% EtOH, 40° C., 10 days

CC/C(=C(\c1ccc(O)cc1)c1ccc(OCCNC)cc1)c1ccccc1 [(Z)-Endoxifen, (Z)-4-(1-(4-(2-(methylamino)ethoxy)phenyl)-2-phenylbut-1-enyl) phenol]
(E)-endoxifen content [1, 3]: (2.09%/
(Z)-endoxifen content [1, 3]: 96.59%)
E/Z ratio [1, 3]: 1/46
Total Impurity [1, 3]: 1.33%
(E)-endoxifen content [1, 4]: (5.62%
(Z)-endoxifen content [1, 4]: 92.67%)
E/Z ratio [1, 4]: 1/17
Total Impurity [1, 4]: 1.71%
(E)-endoxifen content [1, 5]: (10.46%/
(Z)-endoxifen content [1, 5]: 88.20%)
Total Impurity [1, 5]: 1.34%
(E)-endoxifen content [1, 6]: (4.43%/
(Z)-endoxifen content [1, 6]: 94.23%)
E/Z ratio [1, 6]: 1/21
Total Impurity [1, 6]: 1.34%
(E)-endoxifen content [1, 7]: (15.23%/
(Z)-endoxifen content [1, 7]: 83.04%)
Total Impurity [1, 7]: 1.73%
(E)-endoxifen content [1, 8]: (22.59%/
(Z)-endoxifen content [1, 8]: 76.09%)
Total Impurity [1, 8]: 1.32%
(E)-endoxifen content [1, 9]: (1.37%/
(Z)-endoxifen content [1, 9]: 97.33%)
E/Z ratio [1, 9]: 1/71
Total Impurity [1, 9]: 1.3%
(E)-endoxifen content [1, 10]: (1.91%/
(Z)-endoxifen content [1, 10]: 96.37%)
E/Z ratio [1, 10]: 1/50
Total Impurity [1, 10]: 1.72%
(E)-endoxifen content [1, 11]: (2.58%/
(Z)-endoxifen content [1, 11]: 96.03%)
E/Z ratio [1, 11]: 1/37
Total Impurity [1, 11]: 1.39%
(E)-endoxifen content [1, 12]: (1.70%/
(Z)-endoxifen content [1, 12]: 96.98%)
E/Z ratio [1, 12]: 1/57
Total Impurity [1, 12]: 1.32%
(E)-endoxifen content [1, 13]: (2.82%/
(Z)-endoxifen content [1, 13]: 95.45%)
E/Z ratio [1, 13]: 1/34
Total Impurity [1, 13]: 1/73%
(E)-endoxifen content [1, 14]: (3.56%/
(Z)-endoxifen content [1, 14]: 95.10%)
E/Z ratio [1, 14]: 1/27
Total Impurity [1, 14]: 1.34%
stability in alcoholic solutions ([1]; ethanol, elevated temperatures (40° C.), higher concentrations, over 10 days): surprisingly stable
Published Literature Result of Average Plasma (Z)-Endoxifen Css ([2]; oral dose 1 mg): 12.4 ng/mL and 33.1 nM
Published Literature Result of Average Plasma (Z)-Endoxifen Css ([2]; oral dose 2 mg): 18.6 ng/mL and 49.8 nM
Published Literature Result of Average Plasma (Z)-Endoxifen Css ([2]; oral dose 4 mg): 56.8 ng/mL and 152.1 nM
Published Literature Result of Average Plasma (Z)-Endoxifen Css ([2]; oral dose 8 mg): 96.8 ng/mL and 259.2 nM
